Assay results: paper PMC8152588 (RSC Medicinal Chemistry, 2021)
Like-named read-outs stand apart in the source and are kept apart here.

Key:
[1] = system: MOLM-13 human AML cells; details: ref Viktorsson et al.[26], cited from earlier work
[2] = system: NRK (normal rat kidney epithelial) cells; experiment: Cytotoxicity; format: cell-based; details: for EC50: ±SEM; for Selectivity towards leukemic cells compared with NRK cells (factor): MOLM-13 vs NRK
[3] = Solubility observation; format: physicochemical; details: cell media / DMSO
[4] = read-out: EC50 (μM) MOLM-13 2% O2, 2% O2, ±SEM
[5] = read-out: EC50 (μM) MOLM-13 19% O2, 19% O2, ±SEM
[6] = read-out: EC50 (μM) NRK 2% O2, 2% O2, 24 h exposure
[7] = read-out: EC50 (μM) NRK 19% O2, 19% O2, 24 h exposure

Structure (SMILES) | EC50 [1, 4] | EC50 [1, 5] | EC50 [2, 6] | also measured
[O-][n+]1c2cccc(O)c2[n+]([O-])c2cccc(O)c21 [Compound 3, 1,6-dihydroxyphenazine 5,10-dioxide] | 0.79 ± 0.1 µM | 2 ± 0.07 µM | > 50 µM | –
COc1cccc2c1[n+]([O-])c1cccc(O)c1[n+]2[O-] [Compound 4, 1-hydroxy-6-methoxyphenazine 5,10-dioxide] | 0.77 ± 0.13 µM | 1.4 ± 0.3 µM | – | Selectivity towards leukemic cells compared with NRK cells (factor) ([2]; hypoxic conditions (2% O2)): around 100
CCOC(=O)COc1cccc2c1[n+]([O-])c1cccc(O)c1[n+]2[O-] [Compound 7, 1-hydroxy-6-(2-ethoxy-2-oxoethoxy) phenazine 5,10-dioxide] | 0.49 ± 0.12 µM | 0.57 ± 0.06 µM | – | –
Nc1n[n+]([O-])c2ccccc2[n+]1[O-] [Compound 10, 3-amino-1,2,4-benzotriazine 1,4-dioxide] | 22 ± 2 µM | 95 ± 8 µM | – | EC50 [2, 7]: > 100 µM
CCOC(=O)Oc1cccc2c1[n+]([O-])c1cccc(OC(=O)OCC)c1[n+]2[O-] [Compound 14] | – | – | > 25 µM | –
[O-][n+]1c2ccccc2[n+]([O-])c2c(O)cccc21 [Compound 21, 1-Hydroxyphenazine 5,10-dioxide] | – | – | > 100 µM | –
Cc1cc2c(cc1C)[n+]([O-])c1c(O)cccc1[n+]2[O-] [Compound 44, 7,8-Dimethyl-1-hydroxyphenazine 5,10-dioxide] | – | – | > 50 µM | –
[O-][n+]1c2cc3ccccc3cc2[n+]([O-])c2c(O)cccc21 [Compound 45] | – | – | – | Solubility [3]: practically insoluble
CCOC(=O)COc1cccc2c1[n+]([O-])c1cc(C)c(C)cc1[n+]2[O-] [Compound 48] | – | – | > 100 µM | EC50 [2, 7]: 140 ± 2 µM
CN1CCN(C(=O)Oc2cccc3c2[n+]([O-])c2cc(Cl)c(Cl)cc2[n+]3[O-])CC1 [Compound 54] | – | – | – | Selectivity towards leukemic cells compared with NRK cells (factor) ([2]; 19% O2): more than 30
